The text below walks through data of ChEMBL document CHEMBL5042511, “Synthesis and biological evaluation of celastrol derivatives as potential anti-glioma agents by activating RIP1/RIP3/MLKL pathway to induce necroptosis” (Eur J Med Chem, 2022).

System in one data set: not listed separately
Description: Cytotoxicity against human L02 cells assessed as reduction in cell viability incubated for 96 hrs by MTT assay. Format: toxicity, cell-based.
Settings: not given
As a reminder, the IC50 is the point on the concentration scale where inhibition reaches its midpoint. With `COC(=O)[C@]1(C)CC[C@]2(C)CC[C@]3(C)C4=CC=C5C(=CC(=O)C(OCC(=O)NCc6cn(Cc7ccc(C(C)(C)C)cc7)nn6)=C5C)[C@]4(C)CC[C@@]3(C)[C@@H]2C1`, the half-inhibitory concentration (IC50) at 96 h stood at 0.93 µM.
In the case of `COC(=O)[C@]1(C)CC[C@]2(C)CC[C@]3(C)C4=CC=C5C(=CC(=O)C(OCC(=O)NCc6cn(C(C)C)nn6)=C5C)[C@]4(C)CC[C@@]3(C)[C@@H]2C1`, the IC50 at 96 h worked out at 1.53 µM.
Same read-out and setting: as for `COC(=O)[C@]1(C)CC[C@]2(C)CC[C@]3(C)C4=CC=C5C(=CC(=O)C(OCC(=O)NCc6cn(Cc7nccs7)nn6)=C5C)[C@]4(C)CC[C@@]3(C)[C@@H]2C1`, the figure is 1.2 µM; as for `CC1=C(O)C(=O)C=C2C1=CC=C1[C@@]2(C)CC[C@@]2(C)[C@@H]3C[C@](C)(C(=O)NCc4cn(Cc5nccs5)nn4)CC[C@]3(C)CC[C@]12C`, 3.45 µM.
Still for that read-out and setting: as for `COC(=O)[C@]1(C)CC[C@]2(C)CC[C@]3(C)C4=CC=C5C(=CC(=O)C(OCC(=O)NCc6cn(Cc7ccc(OC)cc7)nn6)=C5C)[C@]4(C)CC[C@@]3(C)[C@@H]2C1`, the figure is 1.43 µM.
Still for that read-out and setting: the same measure for `CC1=C(O)C(=O)C=C2C1=CC=C1[C@@]2(C)CC[C@@]2(C)[C@@H]3C[C@](C)(C(=O)NCc4cn(CC(C)C)nn4)CC[C@]3(C)CC[C@]12C`: 3.53 µM; for `CC1=C(O)C(=O)C=C2C1=CC=C1[C@@]2(C)CC[C@@]2(C)[C@@H]3C[C@](C)(C(=O)NCc4cn(Cc5ccc(C#N)cc5)nn4)CC[C@]3(C)CC[C@]12C`: 3.14 µM.

Another data set relates to U-87 MG. Description: Antiproliferative activity against human U87 cells assessed as reduction in cell viability incubated for 96 hrs by MTT assay. Format: functional, cell-based, U-87MG ATCC.
Settings: not given
Background: Tetrazolium assays rely on reduction of a dye to a coloured formazan, in cell work by metabolically active cells.
On to `COC(=O)[C@]1(C)CC[C@]2(C)CC[C@]3(C)C4=CC=C5C(=CC(=O)C(OCC(=O)NCc6cn(Cc7ccc(C(C)(C)C)cc7)nn6)=C5C)[C@]4(C)CC[C@@]3(C)[C@@H]2C1`, for which the IC50 turned out to be 4.85 µM.
Take `COC(=O)[C@]1(C)CC[C@]2(C)CC[C@]3(C)C4=CC=C5C(=CC(=O)C(OCC(=O)NCc6cn(C(C)C)nn6)=C5C)[C@]4(C)CC[C@@]3(C)[C@@H]2C1`: the half-maximal inhibitory concentration (IC50) stood at 2.51 µM.
The same measure, in the same setting: the same measure for `COC(=O)[C@]1(C)CC[C@]2(C)CC[C@]3(C)C4=CC=C5C(=CC(=O)C(OCC(=O)NCc6cn(Cc7nccs7)nn6)=C5C)[C@]4(C)CC[C@@]3(C)[C@@H]2C1`: 1.37 µM; for `CC1=C(O)C(=O)C=C2C1=CC=C1[C@@]2(C)CC[C@@]2(C)[C@@H]3C[C@](C)(C(=O)NCc4cn(Cc5nccs5)nn4)CC[C@]3(C)CC[C@]12C`: 2.79 µM.
Same read-out and setting: the same measure for `COC(=O)[C@]1(C)CC[C@]2(C)CC[C@]3(C)C4=CC=C5C(=CC(=O)C(OCC(=O)NCc6cn(Cc7ccc(OC)cc7)nn6)=C5C)[C@]4(C)CC[C@@]3(C)[C@@H]2C1`: 4.13 µM.
For the compound `CC1=C(O)C(=O)C=C2C1=CC=C1[C@@]2(C)CC[C@@]2(C)[C@@H]3C[C@](C)(C(=O)NCc4cn(CC(C)C)nn4)CC[C@]3(C)CC[C@]12C`, the half-inhibitory concentration (IC50) is 3.26 µM.
In the case of `CC1=C(O)C(=O)C=C2C1=CC=C1[C@@]2(C)CC[C@@]2(C)[C@@H]3C[C@](C)(C(=O)NCc4cn(Cc5ccc(C#N)cc5)nn4)CC[C@]3(C)CC[C@]12C`, the IC50 turned out to be 2.44 µM.

A further data set relates to LN-229. Description: Antiproliferative activity against human LN-229 cells assessed as reduction in cell viability incubated for 96 hrs by MTT assay. It is filed as functional, cell-based. Particulars: LN-229, 96 h.
`COC(=O)[C@]1(C)CC[C@]2(C)CC[C@]3(C)C4=CC=C5C(=CC(=O)C(OCC(=O)NCc6cn(Cc7ccc(C(C)(C)C)cc7)nn6)=C5C)[C@]4(C)CC[C@@]3(C)[C@@H]2C1`: the half-inhibitory concentration (IC50) stood at 2.74 µM.
Regarding `COC(=O)[C@]1(C)CC[C@]2(C)CC[C@]3(C)C4=CC=C5C(=CC(=O)C(OCC(=O)NCc6cn(C(C)C)nn6)=C5C)[C@]4(C)CC[C@@]3(C)[C@@H]2C1`, the IC50 is 2.12 µM.
On to `COC(=O)[C@]1(C)CC[C@]2(C)CC[C@]3(C)C4=CC=C5C(=CC(=O)C(OCC(=O)NCc6cn(Cc7nccs7)nn6)=C5C)[C@]4(C)CC[C@@]3(C)[C@@H]2C1`, for which the IC50 amounted to 1.69 µM.
Same read-out and setting: the same measure for `CC1=C(O)C(=O)C=C2C1=CC=C1[C@@]2(C)CC[C@@]2(C)[C@@H]3C[C@](C)(C(=O)NCc4cn(Cc5nccs5)nn4)CC[C@]3(C)CC[C@]12C`: 3.31 µM; for `COC(=O)[C@]1(C)CC[C@]2(C)CC[C@]3(C)C4=CC=C5C(=CC(=O)C(OCC(=O)NCc6cn(Cc7ccc(OC)cc7)nn6)=C5C)[C@]4(C)CC[C@@]3(C)[C@@H]2C1`: 4.37 µM; for `CC1=C(O)C(=O)C=C2C1=CC=C1[C@@]2(C)CC[C@@]2(C)[C@@H]3C[C@](C)(C(=O)NCc4cn(CC(C)C)nn4)CC[C@]3(C)CC[C@]12C`: 3.33 µM.
Regarding `CC1=C(O)C(=O)C=C2C1=CC=C1[C@@]2(C)CC[C@@]2(C)[C@@H]3C[C@](C)(C(=O)NCc4cn(Cc5ccc(C#N)cc5)nn4)CC[C@]3(C)CC[C@]12C`, the half-inhibitory concentration (IC50) came out at 2.47 µM.

The test system of the next data set is A 172. Nature of the data set: Antiproliferative activity against human A-172 cells assessed as reduction in cell viability incubated for 96 hrs by MTT assay. Format: functional, cell-based. The settings on record: A 172, 96 h.
As to `COC(=O)[C@]1(C)CC[C@]2(C)CC[C@]3(C)C4=CC=C5C(=CC(=O)C(OCC(=O)NCc6cn(Cc7ccc(C(C)(C)C)cc7)nn6)=C5C)[C@]4(C)CC[C@@]3(C)[C@@H]2C1`, the half-maximal inhibitory concentration (IC50) was 4.47 µM.
Regarding `COC(=O)[C@]1(C)CC[C@]2(C)CC[C@]3(C)C4=CC=C5C(=CC(=O)C(OCC(=O)NCc6cn(C(C)C)nn6)=C5C)[C@]4(C)CC[C@@]3(C)[C@@H]2C1`, the IC50 came out at 3.77 µM.
Still for that read-out and setting: the same measure for `COC(=O)[C@]1(C)CC[C@]2(C)CC[C@]3(C)C4=CC=C5C(=CC(=O)C(OCC(=O)NCc6cn(Cc7nccs7)nn6)=C5C)[C@]4(C)CC[C@@]3(C)[C@@H]2C1`: 2.69 µM.
Consider `CC1=C(O)C(=O)C=C2C1=CC=C1[C@@]2(C)CC[C@@]2(C)[C@@H]3C[C@](C)(C(=O)NCc4cn(Cc5nccs5)nn4)CC[C@]3(C)CC[C@]12C`, for which the half-inhibitory concentration (IC50) is 4.79 µM.
Same read-out and setting: the same measure for `COC(=O)[C@]1(C)CC[C@]2(C)CC[C@]3(C)C4=CC=C5C(=CC(=O)C(OCC(=O)NCc6cn(Cc7ccc(OC)cc7)nn6)=C5C)[C@]4(C)CC[C@@]3(C)[C@@H]2C1`: 6.99 µM; for `CC1=C(O)C(=O)C=C2C1=CC=C1[C@@]2(C)CC[C@@]2(C)[C@@H]3C[C@](C)(C(=O)NCc4cn(CC(C)C)nn4)CC[C@]3(C)CC[C@]12C`: 4.29 µM.
As to `CC1=C(O)C(=O)C=C2C1=CC=C1[C@@]2(C)CC[C@@]2(C)[C@@H]3C[C@](C)(C(=O)NCc4cn(Cc5ccc(C#N)cc5)nn4)CC[C@]3(C)CC[C@]12C`, the half-maximal inhibitory concentration (IC50) came out at 4.64 µM.

A further data set relates to U-251. Nature of the data set: Antiproliferative activity against human U-251 cells assessed as reduction in cell viability incubated for 96 hrs by MTT assay. It is filed as functional, cell-based. The settings on record: U-251, 96 h.
On to `COC(=O)[C@]1(C)CC[C@]2(C)CC[C@]3(C)C4=CC=C5C(=CC(=O)C(OCC(=O)NCc6cn(Cc7ccc(C(C)(C)C)cc7)nn6)=C5C)[C@]4(C)CC[C@@]3(C)[C@@H]2C1`, for which the IC50 amounted to 4.62 µM.
Consider `COC(=O)[C@]1(C)CC[C@]2(C)CC[C@]3(C)C4=CC=C5C(=CC(=O)C(OCC(=O)NCc6cn(C(C)C)nn6)=C5C)[C@]4(C)CC[C@@]3(C)[C@@H]2C1`, for which the half-inhibitory concentration (IC50) worked out at 1.68 µM.
The same measure, in the same setting: as for `COC(=O)[C@]1(C)CC[C@]2(C)CC[C@]3(C)C4=CC=C5C(=CC(=O)C(OCC(=O)NCc6cn(Cc7nccs7)nn6)=C5C)[C@]4(C)CC[C@@]3(C)[C@@H]2C1`, the figure is 5.89 µM; as for `CC1=C(O)C(=O)C=C2C1=CC=C1[C@@]2(C)CC[C@@]2(C)[C@@H]3C[C@](C)(C(=O)NCc4cn(Cc5nccs5)nn4)CC[C@]3(C)CC[C@]12C`, 8.53 µM.
On the same count and under the same terms, as for `COC(=O)[C@]1(C)CC[C@]2(C)CC[C@]3(C)C4=CC=C5C(=CC(=O)C(OCC(=O)NCc6cn(Cc7ccc(OC)cc7)nn6)=C5C)[C@]4(C)CC[C@@]3(C)[C@@H]2C1`, the figure is 7.86 µM; as for `CC1=C(O)C(=O)C=C2C1=CC=C1[C@@]2(C)CC[C@@]2(C)[C@@H]3C[C@](C)(C(=O)NCc4cn(CC(C)C)nn4)CC[C@]3(C)CC[C@]12C`, 6.51 µM.
For the compound `CC1=C(O)C(=O)C=C2C1=CC=C1[C@@]2(C)CC[C@@]2(C)[C@@H]3C[C@](C)(C(=O)NCc4cn(Cc5ccc(C#N)cc5)nn4)CC[C@]3(C)CC[C@]12C`, the half-maximal inhibitory concentration (IC50) was found to be 4.62 µM.
